In US20230317203A1, “SCREENING METHOD” (University of Leeds, priority 2022, published 2023):

Columns and labels:
Format in all cases: biochemical
BRISC BRCC36 Arg167Ala = BRISC BRCC36 Arg167Ala (Homo sapiens, UniProt P46736+Q15018+Q9NXR7, R167A); assay: IQF DUB assay, BRISC mutant BRCC36 Arg167Ala; details: FIG. 4B
Method: The four-subunit human BRISC (full-length (FL) and MERIT40ΔN, Abraxas2ΔC) complex was cloned using the MultiBac system and co-expressed in Spodoptera frugiperda (Sf9) insect cells^32. BRISC mutants were cloned into pFastBac vectors in the Bac-to-Bac system (ThermoFisher), baculoviruses generated in Sf9 cells and used for co-infection of Trichoplusia ni (Tni) cells. All BRISC complexes were purified as previously described^12,13.
BRISC complexes were tested for activity in DUB reaction buffer containing 50 mM HEPES-NaOH pH 7.0, 100 mM NaCl, 0.1 mg/mL BSA, 1 mM DTT, and 0.003% Brij-35. […] Inhibitors were assayed at concentrations up to 200 μM. […] DUB activity was measured using internally quenched fluorescent (IQF) K63-linked diUb (Lifesensors, catalogue number: DU6303) at 50 or 100 nM. Cleaved diUb was monitored by measuring fluorescence intensity (Ex. 540 nm, Em. 580 nm; dichroic mirror 560 nm). Fluorescence intensity was measured every minute for 30 minutes at 30° C. Fluorescence intensity units for the first 10 minutes were plotted against time to generate a linear reaction progress curve, where the initial velocity (v0) corresponds to the gradient of the curve. IC50 values were calculated using the GraphPad Prism (v8.0) built-in dose-response equation for inhibitor concentration vs. response (variable slope). […]

BRISC [1] = molecular target: T1, BRISC (Homo sapiens, UniProt P46736+Q15018+Q9NXR7); assay: IQF K63-linked diUb DUB activity assay, BRISC; set-up: made in house; host or cells: Spodoptera frugiperda (Sf9) insect cells; details: IQF assay, fluorescent di-ubiquitin substrate, FIG. 1F
Method: BRISC complexes were tested for activity in DUB reaction buffer containing 50 mM HEPES-NaOH pH 7.0, 100 mM NaCl, 0.1 mg/mL BSA, 1 mM DTT, and 0.003% Brij-35. […] Inhibitors were assayed at concentrations up to 200 μM. 20 μL enzyme reactions were carried out in 384-well black flat-bottom low flange plates (Corning; 35373). DUB activity was measured using internally quenched fluorescent (IQF) K63-linked diUb (Lifesensors, catalogue number: DU6303) at 50 or 100 nM. Cleaved diUb was monitored by measuring fluorescence intensity (Ex. 540 nm, Em. 580 nm; dichroic mirror 560 nm). Fluorescence intensity was measured every minute for 30 minutes at 30° C. Fluorescence intensity units for the first 10 minutes were plotted against time to generate a linear reaction progress curve, where the initial velocity (v0) corresponds to the gradient of the curve. IC50 values were calculated using the GraphPad Prism (v8.0) built-in dose-response equation for inhibitor concentration vs. response (variable slope).
A high throughput biochemical screen was designed to identify inhibitors of BRISC, based on the ability of small molecules to inhibit BRISC cleavage of a K63-linked di-ubiquitin substrate. The di-ubiquitin substrate is designed with a fluorescent TAMRA dye on the proximal ubiquitin moiety and fluorescence quencher on the distal ubiquitin molecule (FIG. 1A). Upon isopeptidase bond cleavage, fluorescence is detected, enabling continuous fluorescent readout of deubiquitylase activity over time (FIG. 1A). The assay conditions were optimised and used to test an in-house compound library comprising of ˜300 published and custom-made kinase inhibitors. From this screen, two hits were identified, compounds AT7519 (well H20) and YM201636 (well P12) (FIG. 1B). The specificity of these compounds was assessed against the broad-spectrum DUB ubiquitin-specific protease-2 (USP2) and the serine protease trypsin which cleave K63-Ub substrate under the same conditions. […] UV-Vis spectroscopy analyses of the compound in well H20 used in the screen compared to the Synkinase and Sellechem AT7519 compounds identified an additional peak in the H20 spectra (FIG. 5C). […] The synthesis of the two isomers was confirmed using mass spectrometry fragmentation analyses (FIG. 5E) and the inhibitory effect of the isomers was tested against BRISC.

BRISC [2] = molecular target: T1, BRISC; assay: BRISC-mediated tetraubiquitin chain cleavage by Western blotting; set-up: made in house; host or cells: Spodoptera frugiperda (Sf9) insect cells; details: K63-linked Ub4, Western blot, FIG. 6B
Description: The potency of these analogues was characterised in the IQF assay with a fluorescent di-ubiquitin substrate. […] We confirmed the ability of these inhibitors to block BRISC-mediated tetraubiquitin chain cleavage by Western blotting (FIG. 6B).

inhibitor sensitivity of mutant (BRISC BRCC36 Arg167Ala): remained inhibitor sensitive
IC50 compared to JMS-175-2 (BRISC [1]): slightly improved
inhibition of tetraubiquitin chain cleavage (BRISC [2]): Dose-dependent inhibition
SMILES: O=C(NC1C2CNCC21)c1nn(C(=O)c2c(Cl)cccc2Cl)cc1NC(=O)c1c(Cl)cccc1Cl (stereo not drawn) [FX-171-C]
